Test results published in PubChem BioAssay AID248 (DTP/NCI, 2004).
Where “and” joins values, the source holds several entries; their conditions need not be identical. Identical values can stand only once. Inconclusive results and toxic doses are left out.

Test system: L1210 leukemia ip in BDF1 mice, survival T/C
Experiment: NCI In Vivo Anticancer Drug Screen. Data for tumor model L1210 Leukemia (intraperitoneal) in B6D2F1 (BDF1) mice
Details: higher = longer survival
Method in brief: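 Transplantable tumor model; survival measured in treated vs vehicle control mice. Value = treated/control.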

CN(N=O)C(N)=O
T/C (endpoint: mean survival time, dose: 0.35 mg/kg/injection, schedule: Q01DX Z (sc), vehicle: steriod suspending solution): 103 % of control
T/C (endpoint: mean survival time, dose: 0.55 mg/kg/injection, schedule: Q01DX Z (sc), vehicle: steriod suspending solution): 97 % of control
T/C (endpoint: mean survival time, dose: 0.83 mg/kg/injection, schedule: Q01DX Z (sc), vehicle: steriod suspending solution): 100 % of control
T/C (endpoint: mean survival time, dose: 0.92 mg/kg/injection, schedule: Q01DX Z (oral), vehicle: steriod suspending solution): 98 % of control
T/C (endpoint: mean survival time, dose: 1.25 mg/kg/injection, schedule: Q01DX Z (sc), vehicle: steriod suspending solution): 103 % of control
T/C (endpoint: mean survival time, dose: 1.38 mg/kg/injection, schedule: Q01DX Z (oral), vehicle: steriod suspending solution): 106 % of control
T/C (endpoint: mean survival time, dose: 2.08 mg/kg/injection, schedule: Q01DX Z (oral), vehicle: steriod suspending solution): 107 % of control
T/C (endpoint: mean survival time, dose: 2.25 mg/kg/injection, schedule: Q01DX Z (ip), vehicle: carboxymethylcellulose (CMC)): 112 % of control
T/C (endpoint: mean survival time, dose: 2.5 mg/kg/injection, schedule: Q01DX Z (sc), vehicle: steriod suspending solution): 156 % of control
T/C (endpoint: mean survival time, dose: 3.12 mg/kg/injection, schedule: Q01DX Z (oral), vehicle: steriod suspending solution): 114 % of control
T/C (endpoint: mean survival time, dose: 3.6 mg/kg/injection, schedule: Q01DX Z (ip), vehicle: carboxymethylcellulose (CMC)): 109 % of control
T/C (endpoint: mean survival time, dose: 4.5 mg/kg/injection, schedule: Q01DX Z (ip), vehicle: carboxymethylcellulose (CMC)): 109 % of control and 120 % of control
T/C (endpoint: mean survival time, dose: 5.0 mg/kg/injection, schedule: Q01DX009 (ip), vehicle: saline): 118 % of control and 123 % of control
T/C (endpoint: mean survival time, dose: 5.0 mg/kg/injection, schedule: Q01DX Z (sc), vehicle: steriod suspending solution): 160 % of control
T/C (endpoint: mean survival time, dose: 5.7 mg/kg/injection, schedule: Q02DX010 (ip), vehicle: carboxymethylcellulose (CMC)): 121 % of control
T/C (endpoint: mean survival time, dose: 6.0 mg/kg/injection, schedule: Q01DX Z (ip), vehicle: carboxymethylcellulose (CMC)): 119 % of control
T/C (endpoint: mean survival time, dose: 6.2 mg/kg/injection, schedule: Q01DX Z (sc), vehicle: saline): 106 % of control and 113 % of control
T/C (endpoint: mean survival time, dose: 6.25 mg/kg/injection, schedule: Q01DX Z (oral), vehicle: steriod suspending solution): 101 % of control
T/C (endpoint: mean survival time, dose: 6.8 mg/kg/injection, schedule: Q02DX010 (ip), vehicle: saline): 122 % of control
T/C (endpoint: mean survival time, dose: 8.0 mg/kg/injection, schedule: Q01DX Z (ip), vehicle: saline): 162 % of control
T/C (endpoint: mean survival time, dose: 8.0 mg/kg/injection, schedule: Q01DX Z (sc), vehicle: other): 122 % of control
T/C (endpoint: mean survival time, dose: 8.0 mg/kg/injection, schedule: Q01DX Z (sc), vehicle: saline): 115 % of control
T/C (endpoint: mean survival time, dose: 9.0 mg/kg/injection, schedule: Q01DX Z (sc), vehicle: saline): 103 % of control
T/C (endpoint: mean survival time, dose: 9.0 mg/kg/injection, schedule: Q02DX010 (ip), vehicle: carboxymethylcellulose (CMC)): 122 % of control
T/C (endpoint: mean survival time, dose: 10.0 mg/kg/injection, schedule: Q01DX Z (sc), vehicle: steriod suspending solution): 156 % of control
T/C (endpoint: mean survival time, dose: 12.0 mg/kg/injection, schedule: Q01DX Z (ip), vehicle: saline): 184 % of control
T/C (endpoint: mean survival time, dose: 12.5 mg/kg/injection, schedule: Q01DX Z (oral), vehicle: steriod suspending solution): 157 % of control
T/C (endpoint: mean survival time, dose: 13.0 mg/kg/injection, schedule: Q02DX010 (ip), vehicle: saline): 154 % of control
T/C (endpoint: mean survival time, dose: 18.0 mg/kg/injection, schedule: Q01DX001 (ip), vehicle: saline): 124 % of control
T/C (endpoint: mean survival time, dose: 18.0 mg/kg/injection, schedule: Q01DX Z (ip), vehicle: carboxymethylcellulose (CMC)): 177 % of control
T/C (endpoint: mean survival time, dose: 18.0 mg/kg/injection, schedule: Q01DX Z (ip), vehicle: saline): 187 % of control
T/C (endpoint: mean survival time, dose: 18.0 mg/kg/injection, schedule: Q01DX Z (sc), vehicle: other): 188 % of control
T/C (endpoint: mean survival time, dose: 20.0 mg/kg/injection, schedule: Q01DX009 (ip), vehicle: saline): 158 % of control and 174 % of control
T/C (endpoint: mean survival time, dose: 20.0 mg/kg/injection, schedule: Q02DX010 (ip), vehicle: other): 159 % of control
T/C (endpoint: mean survival time, dose: 20.0 mg/kg/injection, schedule: Q02DX010 (ip), vehicle: saline): 160 % of control and 166 % of control
T/C (endpoint: mean survival time, dose: 22.5 mg/kg/injection, schedule: Q02DX010 (ip), vehicle: saline): 152 % of control
T/C (endpoint: mean survival time, dose: 24.0 mg/kg/injection, schedule: Q02DX010 (ip), vehicle: saline): 167 % of control
T/C (endpoint: mean survival time, dose: 24.8 mg/kg/injection, schedule: Q01DX Z (oral), vehicle: saline): 112 % of control
T/C (endpoint: mean survival time, dose: 27.0 mg/kg/injection, schedule: Q01DX Z (ip), vehicle: saline): 115 % of control
T/C (endpoint: mean survival time, dose: 30.0 mg/kg/injection, schedule: Q02DX010 (ip), vehicle: other): 208 % of control
T/C (endpoint: mean survival time, dose: 30.0 mg/kg/injection, schedule: Q02DX010 (ip), vehicle: saline): 154 % of control and 177 % of control
T/C (endpoint: mean survival time, dose: 36.0 mg/kg/injection, schedule: Q01DX Z (ip), vehicle: carboxymethylcellulose (CMC)): 122 % of control
T/C (endpoint: mean survival time, dose: 36.0 mg/kg/injection, schedule: Q02DX010 (ip), vehicle: saline): 211 % of control
T/C (endpoint: mean survival time, dose: 40.0 mg/kg/injection, schedule: Q01DX009 (ip), vehicle: saline): 118 % of control and 88 % of control
T/C (endpoint: mean survival time, dose: 40.0 mg/kg/injection, schedule: Q01DX Z (ip), vehicle: saline): 103 % of control
T/C (endpoint: mean survival time, dose: 45.0 mg/kg/injection, schedule: Q01DX Z (ip), vehicle: carboxymethylcellulose (CMC)): 94 % of control
T/C (endpoint: mean survival time, dose: 45.0 mg/kg/injection, schedule: Q02DX010 (ip), vehicle: saline): 108 % of control
T/C (endpoint: mean survival time, dose: 56.0 mg/kg/injection, schedule: Q01DX Z (oral), vehicle: saline): 113 % of control and 114 % of control
T/C (endpoint: mean survival time, dose: 67.0 mg/kg/injection, schedule: Q02DX010 (ip), vehicle: other): 101 % of control
T/C (endpoint: mean survival time, dose: 67.0 mg/kg/injection, schedule: Q02DX010 (ip), vehicle: saline): 74 % of control
T/C (endpoint: mean survival time, dose: 72.0 mg/kg/injection, schedule: Q01DX001 (ip), vehicle: saline): 188 % of control
T/C (endpoint: mean survival time, dose: 80.0 mg/kg/injection, schedule: Q01DX Z (sc), vehicle: steriod suspending solution): 101 % of control
T/C (endpoint: mean survival time, dose: 84.0 mg/kg/injection, schedule: Q01DX Z (oral), vehicle: saline): 101 % of control
T/C (endpoint: mean survival time, dose: 160.0 mg/kg/injection, schedule: Q01DX Z (sc), vehicle: steriod suspending solution): 88 % of control
T/C (endpoint: median survival time, dose: 0.75 mg/kg/injection, schedule: Q01DX009 (ip), vehicle: saline): 95 % of control
T/C (endpoint: median survival time, dose: 1.5 mg/kg/injection, schedule: Q01DX009 (ip), vehicle: saline): 100 % of control and 110 % of control
T/C (endpoint: median survival time, dose: 3.0 mg/kg/injection, schedule: Q01DX009 (ip), vehicle: saline): 100 % of control and 115 % of control
T/C (endpoint: median survival time, dose: 5.0 mg/kg/injection, schedule: Q01DX009 (ip), vehicle: saline): 121 % of control
T/C (endpoint: median survival time, dose: 6.3 mg/kg/injection, schedule: Q01DX017 (ip), vehicle: saline): 122 % of control
T/C (endpoint: median survival time, dose: 10.0 mg/kg/injection, schedule: Q01DX009 (ip), vehicle: saline): 155 % of control
T/C (endpoint: median survival time, dose: 12.0 mg/kg/injection, schedule: Q01DX009 (ip), vehicle: saline): 172 % of control
T/C (endpoint: median survival time, dose: 12.5 mg/kg/injection, schedule: Q01DX017 (ip), vehicle: saline): 183 % of control and 194 % of control
T/C (endpoint: median survival time, dose: 20.0 mg/kg/injection, schedule: Q01DX009 (ip), vehicle: saline): 233 % of control and 242 % of control
T/C (endpoint: median survival time, dose: 24.0 mg/kg/injection, schedule: Q01DX009 (ip), vehicle: saline): 190 % of control
T/C (endpoint: median survival time, dose: 40.0 mg/kg/injection, schedule: Q01DX009 (ip), vehicle: saline): 100 % of control and 121 % of control

CN(C)C(=O)CCOc1cccc2ccccc12
T/C (endpoint: mean survival time, dose: 75.0 mg/kg/injection, schedule: Q01DX001 (ip), vehicle: saline): 100 % of control

O=[N+]([O-])c1cc(Cl)c(Cl)cc1NCCCO
T/C (endpoint: mean survival time, dose: 100.0 mg/kg/injection, schedule: Q01DX001 (ip), vehicle: saline): 95 % of control
T/C (endpoint: mean survival time, dose: 100.0 mg/kg/injection, schedule: Q01DX009 (ip), vehicle: acetone): 95 % of control
T/C (endpoint: mean survival time, dose: 100.0 mg/kg/injection, schedule: Q04DX003 (ip), vehicle: saline): 91 % of control
T/C (endpoint: mean survival time, dose: 200.0 mg/kg/injection, schedule: Q01DX001 (ip), vehicle: saline): 96 % of control
T/C (endpoint: mean survival time, dose: 200.0 mg/kg/injection, schedule: Q01DX009 (ip), vehicle: acetone): 97 % of control
T/C (endpoint: mean survival time, dose: 200.0 mg/kg/injection, schedule: Q04DX003 (ip), vehicle: saline): 96 % of control
T/C (endpoint: mean survival time, dose: 400.0 mg/kg/injection, schedule: Q01DX001 (ip), vehicle: saline): 92 % of control
T/C (endpoint: mean survival time, dose: 400.0 mg/kg/injection, schedule: Q04DX003 (ip), vehicle: saline): 89 % of control

CCc1nc(Cl)c(Cl)[nH]1
T/C (endpoint: mean survival time, dose: 100.0 mg/kg/injection, schedule: Q01DX001 (ip), vehicle: saline with Tween-80): 107 % of control
T/C (endpoint: mean survival time, dose: 200.0 mg/kg/injection, schedule: Q01DX001 (ip), vehicle: saline with Tween-80): 103 % of control

C[n+]1c2cc(N)ccc2cc2ccc(N)cc21
T/C (endpoint: mean survival time, dose: 3.0 mg/kg/injection, schedule: Q04DX003 (ip), vehicle: saline): 108 % of control
T/C (endpoint: mean survival time, dose: 3.5 mg/kg/injection, schedule: Q01DX009 (ip), vehicle: saline): 111 % of control
T/C (endpoint: mean survival time, dose: 5.3 mg/kg/injection, schedule: Q01DX009 (ip), vehicle: saline): 118 % of control
T/C (endpoint: mean survival time, dose: 6.0 mg/kg/injection, schedule: Q04DX003 (ip), vehicle: saline): 105 % of control
T/C (endpoint: mean survival time, dose: 6.25 mg/kg/injection, schedule: Q01DX009 (ip), vehicle: saline): 122 % of control
T/C (endpoint: mean survival time, dose: 12.0 mg/kg/injection, schedule: Q04DX003 (ip), vehicle: saline): 113 % of control
T/C (endpoint: mean survival time, dose: 12.5 mg/kg/injection, schedule: Q04DX003 (ip), vehicle: saline): 98 % of control
